Assay results reported in patent EP1103545B1, “2-(3,5-Bis-trifluoromethyl-phenyl)-N-methyl-N-(6-morpholin-4-yl-4-o-tolyl-pyridin-3-yl)-isobutyramide” (F. HOFFMANN-LA ROCHE AG, priority 1999, dated 2001).

Legend:
[1] = system: emesis induced in Ferets; experiment: Emesis induced by various emetogens; type: in vivo
[2] = target: NK2 receptors (Homo sapiens, UniProt P21452); settings: binding
[3] = system: motion sickness in the suncus murinus; experiment: Model of motion sickness; type: in vivo; settings: po
[4] = target: T1, recombinant human NK1 receptor (Homo sapiens, UniProt P25103); experiment: Substance P induced Ca2+ influx in CHO cells (FLIPR), Schild analysis; type: cell-based
T1 construct: expressed in transfected cells; host or cells: CHO cells
T1 sequence (P25103 whole entry): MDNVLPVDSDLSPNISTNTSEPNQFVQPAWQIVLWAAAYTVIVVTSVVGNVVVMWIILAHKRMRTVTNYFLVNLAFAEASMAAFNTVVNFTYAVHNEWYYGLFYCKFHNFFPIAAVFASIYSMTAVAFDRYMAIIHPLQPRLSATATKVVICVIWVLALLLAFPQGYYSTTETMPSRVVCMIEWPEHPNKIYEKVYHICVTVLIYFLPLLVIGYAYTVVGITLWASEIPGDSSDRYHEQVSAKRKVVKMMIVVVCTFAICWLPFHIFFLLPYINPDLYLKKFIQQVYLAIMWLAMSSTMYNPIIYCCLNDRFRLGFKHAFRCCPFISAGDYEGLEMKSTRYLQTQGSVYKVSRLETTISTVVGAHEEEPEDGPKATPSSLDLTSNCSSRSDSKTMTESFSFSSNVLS
Excerpt: The activity in vitro was examined by studying its effect on substance P induced Ca^2+ influxes in CHO cells expressing the recombinant human NK1 receptor. In these cells, substance P causes a concentration dependent influx of Ca^2+ which can be measured using FLIPR technology.

[5] = system: foot-tapping behaviour induced in Gerbils; experiment: Foot-tapping behaviour induced by i.c.v. injection of an NK1 receptor agonist; type: in vivo
[6] = target: NK3 receptors (Homo sapiens, UniProt P29371); settings: binding
Chain of NK3 receptors (P29371 whole entry): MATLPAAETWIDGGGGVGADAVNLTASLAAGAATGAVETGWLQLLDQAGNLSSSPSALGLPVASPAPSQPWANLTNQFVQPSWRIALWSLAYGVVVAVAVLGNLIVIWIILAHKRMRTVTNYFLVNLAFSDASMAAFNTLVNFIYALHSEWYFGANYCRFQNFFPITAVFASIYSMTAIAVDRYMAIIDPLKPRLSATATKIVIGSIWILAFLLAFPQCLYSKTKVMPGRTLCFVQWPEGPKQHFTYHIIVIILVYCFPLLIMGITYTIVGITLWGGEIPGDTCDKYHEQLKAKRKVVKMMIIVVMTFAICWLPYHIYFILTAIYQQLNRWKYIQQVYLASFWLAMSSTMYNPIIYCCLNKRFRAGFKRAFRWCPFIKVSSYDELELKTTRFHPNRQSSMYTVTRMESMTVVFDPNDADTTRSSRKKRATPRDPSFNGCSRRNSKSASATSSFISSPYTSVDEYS

Chain of NK2 receptors (P21452 whole entry): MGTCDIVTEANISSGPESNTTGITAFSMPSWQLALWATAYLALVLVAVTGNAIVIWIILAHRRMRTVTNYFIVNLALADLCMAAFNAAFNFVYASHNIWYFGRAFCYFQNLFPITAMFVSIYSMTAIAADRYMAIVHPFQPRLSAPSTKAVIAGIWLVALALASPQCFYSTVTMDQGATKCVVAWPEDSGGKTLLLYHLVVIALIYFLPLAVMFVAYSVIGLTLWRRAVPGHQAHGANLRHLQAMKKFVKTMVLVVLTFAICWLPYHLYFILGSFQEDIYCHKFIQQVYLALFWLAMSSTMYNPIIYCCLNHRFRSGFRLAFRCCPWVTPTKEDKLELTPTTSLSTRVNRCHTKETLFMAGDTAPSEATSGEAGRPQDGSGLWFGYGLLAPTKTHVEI

With `Cc1ccccc1-c1cc(N2CCOCC2)ncc1N(C)C(=O)C(C)(C)c1cc(C(F)(F)F)cc(C(F)(F)F)c1` [compound of formula I, 2-(3,5-Bis-trifluoromethyl-phenyl)-N-methyl-N-(6-morpholin-4-yl-4-o-tolyl-pyridin-3-yl)-isobutyramide] the “emesis induced by all emetogens” value ([1]; 0.3 mg/kg p.o. 2 hours before emetogen (apomorphine, morphine, ipecacuanha, cisplatin, CuSO4)) was “completely blocked”, the ED50 ([1]; Mustela putorius, po, apomorphine-induced emesis) was 0.1 mg/kg and the “selectivity for the NK1 receptor compared to NK2 receptors” value [2] was “over 2 orders of magnitude”. For the same compound, the ED50 [3] was 0.2 mg/kg, the “slope of the Schild regression” value [4] was 1.1 and the Kb ([4]; Schild plot, read-out: antagonist affinity (pA2) (converted)) was 1.26 nM. For the same compound, the “selectivity for the NK1 receptor compared to over 50 other binding sites” value was “over 2 orders of magnitude”, the “total plasma concentration required to completely block the foot-tapping behaviour” value ([5]; Gerbils) was 10 ng/mL and the functional half life ([5]; Gerbils, persistence of antagonism of foot-tapping) was 8 h. For the same compound, the ED50 ([5]; Meriones unguiculatus, po, read-out: dose calculated to inhibit 50 % of the foot-tapping behaviour) was 0.2 mg/kg and the “selectivity for the NK1 receptor compared to NK3 receptors” value [6] was “over 2 orders of magnitude”.
